According to patent US10117430B2, “Malononitrile compounds for controlling animal pests” (BASF SE, priority 2012, dated 2018):

What was measured:
Assay type in all cases: in vivo
[1] = tested on: Orchid Thrips (Dichromothrips corbetti); test: B.4 Orchid thrips floral-immersion test; settings: 96 h, in comparison with untreated controls, after 4 days
Procedure, shortened: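 Orchid flowers dipped in 300 ppm compound (acetone:water 1:1, 0.01% surfactant), dried, then caged with 10-15 adult D. corbetti from a lab colony. Held under continuous light at about 28° C. Live thrips counted after 4 days; mortality extrapolated from pre-treatment numbers.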

[2] = tested on: Mediterranean Fruitfly (Ceratitis capitata); test: B.2 Mediterranean fruitfly microtiter diet test, egg and larval mortality; settings: 120 h, in comparison with untreated controls, egg and larval mortality after 5 days
Procedure, shortened: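 Microtiter plates held insect diet with 50-80 C. capitata eggs; compounds in 75% water/25% DMSO were sprayed onto the diet at various concentrations, two replicates. Plates kept about 5 days at 28±1 °C and 80±5% RH, then egg and larval mortality scored visually.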

[3] = tested on: Yellow Fever Mosquito (Aedes aegypti); test: whole plant or invertebrate; settings: 48 h, in comparison with untreated controls, larval mortality after 2 days
Procedure, shortened: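 Freshly hatched larvae (5-15 per well) in 200 μl tap water; compounds formulated in 75% water/25% DMSO and sprayed at 2.5 μl per well at several concentrations, two replicates. Incubated 2 days at 28±1° C., 80±5% RH; larval mortality scored visually.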

N#CC(C#N)(Cc1ccc(C(F)(F)F)nc1)c1cc(F)cc(F)c1 [II-34]
≥ 75%: mortality at 500 ppm [1] | mortality at 2500 ppm [2] | mortality at 2500 ppm [3]
